For one molecule, LD50 results are on record in ChEMBL document CHEMBL4033655, “Part I: Design, synthesis and biological evaluation of novel pyrazole-benzimidazole conjugates as checkpoint kinase 2 (Chk2) inhibitors with studying their activities alone and in combination with genotoxic drugs” (Eur J Med Chem, 2017).

Each structure is given as a SMILES string.

This data set is described as follows: Acute toxicity in Sprague-Dawley rat assessed as mortality administered orally as single dose measured up to 1 month. The conditions noted are these: in vivo, po.

As for `Cc1nn(-c2ccccc2)c(Oc2ccc(-c3nc4cc(C(=O)O)ccc4[nH]3)cc2)c1[N+](=O)[O-]`, the LD50 was 400 mg/kg.
